Results published in patent US20250333405A1, “ANTAGONISTS OF GPR39 PROTEIN” (VASOCARDEA, INC., priority 2024, published 2025).
Structures can show the parent of a compound that is named as a salt.

Each molecule was assayed against T1, human GPR39 receptor (Homo sapiens, UniProt O43194) (assay: Intracellular calcium response (FLIPR, Calcium-6) in PC3 cells, antagonism of agonist C3 (TC-G 1008) at EC90). Details: functional pKi (-Log10Ki) by modified Cheng-Prusoff from IC50; PC3 cells endogenously expressing human GPR39; 30 μM ZnCl2; agonist C3 (TC-G 1008) at EC90 1.5 μM; read-out: fpKi activity.
T1 construct: PC3 Cells, Expressing the Endogenous Human GPR39 Receptor; endogenous in cells; host or cells: PC3 (human prostate adenocarcinoma) cells
T1 sequence (O43194 1-453): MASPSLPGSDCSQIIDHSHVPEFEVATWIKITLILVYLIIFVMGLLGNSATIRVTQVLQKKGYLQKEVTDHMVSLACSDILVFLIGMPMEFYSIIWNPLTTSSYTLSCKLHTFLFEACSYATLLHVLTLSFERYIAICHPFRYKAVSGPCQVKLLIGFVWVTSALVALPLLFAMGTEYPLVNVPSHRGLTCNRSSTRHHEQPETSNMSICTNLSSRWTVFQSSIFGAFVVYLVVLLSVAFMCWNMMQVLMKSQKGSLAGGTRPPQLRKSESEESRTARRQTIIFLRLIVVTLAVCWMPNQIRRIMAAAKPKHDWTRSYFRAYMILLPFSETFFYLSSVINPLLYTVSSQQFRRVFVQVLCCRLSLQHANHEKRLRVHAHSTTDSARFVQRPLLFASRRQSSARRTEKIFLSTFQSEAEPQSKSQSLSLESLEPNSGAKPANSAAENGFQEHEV
Assay type: cell-based
Summary of the method: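 Calcium-6-loaded cells in HEPES buffer pH 7.4 were given compound with 30 μM final ZnCl2 (0.32% DMSO) for 10 min, then challenged with 1.5 μM C3. Baseline-subtracted peak fluorescence expressed as % inhibition of the C3 response; IC50 from four-parameter logistic fit, reported as binned fpKi.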

Row | Compound | Ki [nM]
1 | O=C(Nc1ccc(C(=O)N2CC3CC(C3)C2)c(N2CCCC2)c1)C1CC1 [Example 9, N-[4-(3-azabicyclo[3.1.1]heptane-3-carbonyl)-3-pyrrolidin-1-ylphenyl]cyclopropanecarboxamide] | 316 to 1000
2 | O=C(Nc1ccc(C(=O)N2CCS(=O)(=O)CC2)c(C2=CCCC2)c1)C1CC1 [Example 88, N-[3-(cyclopenten-1-yl)-4-(1,1-dioxo-1,4-thiazinane-4-carbonyl)phenyl]cyclopropanecarboxamide] | 316 to 1000
3 | Cc1cc(C(F)(F)F)nc(-c2cc(-c3nnc(C)[nH]3)ccc2C(=O)N2CCC(C(F)(F)F)CC2)n1 [Example 68, [4-(5-methyl-4H-1,2,4-triazol-3-yl)-2-[4-methyl-6-(trifluoromethyl)pyrimidin-2-yl]phenyl]-[4-(trifluoromethyl)-1-piperidyl]methanone] | ≤ 50.1
4 | Cc1nnc(-c2ccc(C(=O)N3CCC(C(F)(F)F)CC3)c(-c3nc(C4CC4)cs3)c2)[nH]1 [Example 69, [2-(4-cyclopropylthiazol-2-yl)-4-(5-methyl-4H-1,2,4-triazol-3-yl)phenyl]-[4-(trifluoromethyl)-1-piperidyl]methanone] | ≤ 50.1
5 | Cc1ccc(-c2cc(NC(=O)C3CC3)ccc2C(=O)N2CCS(=O)(=O)CC2)s1 [Example 25, N-[4-(1,1-dioxo-1,4-thiazinane-4-carbonyl)-3-(5-methylthiophen-2-yl)phenyl]cyclopropanecarboxamide] | 316 to 1000
6 | CS(=O)(=O)NC1CCN(C(=O)c2ccc(NC(=O)C3CC3)cc2N2CCCC2)CC1 [Example 105, N-[4-[4-(methanesulfonamido)piperidine-1-carbonyl]-3-pyrrolidin-1-ylphenyl]cyclopropanecarboxamide] | > 6310
7 | CC(C)(C)c1ccn(-c2cc(NC(=O)C3CC3)ccc2C(=O)N2CCS(=O)(=O)CC2)n1 [Example 118, N-[3-(3-tert-butylpyrazol-1-yl)-4-(1,1-dioxo-1,4-thiazinane-4-carbonyl)phenyl]cyclopropanecarboxamide] | ≤ 50.1
8 | N#Cc1ccn(-c2cc(NC(=O)C3CC3)ccc2C(=O)N2CCS(=O)(=O)CC2)n1 [Example 117, N-[3-(3-cyanopyrazol-1-yl)-4-(1,1-dioxo-1,4-thiazinane-4-carbonyl)phenyl]cyclopropanecarboxamide] | 1260 to 6310
9 | Cc1c(NC(=O)C2CC2)ccc(C(=O)N2CCS(=O)(=O)CC2)c1N1CCCC1 [Example 94, N-[4-(1,1-dioxo-1,4-thiazinane-4-carbonyl)-2-methyl-3-pyrrolidin-1-ylphenyl]cyclopropanecarboxamide] | 316 to 1000
10 | CN(C1CCN(C(=O)c2ccc(NC(=O)C3CC3)cc2N2CCCC2)CC1)S(C)(=O)=O [Example 104, N-[4-[4-[methyl(methylsulfonyl)amino]piperidine-1-carbonyl]-3-pyrrolidin-1-ylphenyl]cyclopropanecarboxamide] | 1260 to 6310
11 | N#Cc1ccc(-c2cc(NC(=O)C3CC3)ccc2C(=O)N2CCS(=O)(=O)CC2)s1 [Example 26, N-[3-(5-cyanothiophen-2-yl)-4-(1,1-dioxo-1,4-thiazinane-4-carbonyl)phenyl]cyclopropanecarboxamide] | 1260 to 6310
12 | CC(C)n1ccc(-c2cc(NC(=O)C3CC3)ccc2C(=O)N2CCS(=O)(=O)CC2)n1 [Example 28, N-[4-(1,1-dioxo-1,4-thiazinane-4-carbonyl)-3-(1-propan-2-ylpyrazol-3-yl)phenyl]cyclopropanecarboxamide] | ≤ 50.1

Now from value to molecule:

Row | Ki [nM] | Compound
13 | 63.1 to 251 | Cc1nnc(-c2ccc(C(=O)N3CCN(C)CC3c3ccccc3)c(N3CCC(C(C)C)C3)c2)[nH]1 (single isomer, unassigned) [Example 125c, (4-methyl-2-phenylpiperazin-1-yl)-[4-(5-methyl-4H-1,2,4-triazol-3-yl)-2-(3-propan-2-ylpyrrolidin-1-yl)phenyl]methanone]
14 | ≤ 50.1 | Cc1nnc(-c2ccc(C(=O)N3CCC(C(F)(F)F)CC3)c(-c3cccc(C(F)(F)F)n3)c2)[nH]1 [Example 73, [4-(5-methyl-4H-1,2,4-triazol-3-yl)-2-[6-(trifluoromethyl)pyridin-2-yl]phenyl]-[4-(trifluoromethyl)piperidin-1-yl]methanone]
15 | ≤ 50.1 | Cc1cc(Cl)cc(C2CN(C)CCN2C(=O)c2ccc(NC(=O)C3CC3)cc2N2CCCC2)c1 (single isomer, unassigned) [Example 110a, N-[4-[2S or 2R-(3-chloro-5-methylphenyl)-4-methylpiperazine-1-carbonyl]-3-pyrrolidin-1-ylphenyl]cyclopropanecarboxamide hydrochloride]
16 | ≤ 50.1 | Cc1nnc(-c2ccc(C(=O)N3CCC(C)CC3)c(-c3cccc(C4CC4)n3)c2)[nH]1 [Example 63, [2-(6-cyclopropyl-2-pyridyl)-4-(5-methyl-4H-1,2,4-triazol-3-yl)phenyl]-(4-methyl-1-piperidyl)methanone]
17 | 63.1 to 251 | Cc1ccc(C2CN(C)CCN2C(=O)c2ccc(NC(=O)C3CC3)cc2N2CCCC2)cc1 (racemic) [Example 109, N-[4-[4-methyl-2-(4-methylphenyl)piperazine-1-carbonyl]-3-pyrrolidin-1-ylphenyl]cyclopropanecarboxamide]
18 | ≤ 50.1 | Cc1nnc(-c2ccc(C(=O)N3CCC(C)(F)CC3)c(-c3cccc(C4CC4)n3)c2)[nH]1 [Example 65, [2-(6-cyclopropyl-2-pyridyl)-4-(5-methyl-4H-1,2,4-triazol-3-yl)phenyl]-(4-fluoro-4-methyl-1-piperidyl)methanone]
19 | ≤ 50.1 | Cc1nnc(-c2ccc(C(=O)N3CCC(C(F)(F)F)CC3)c(-c3ccn(CC(C)C)n3)c2)[nH]1 [Example 45, [2-[1-(2-methylpropyl)pyrazol-3-yl]-4-(5-methyl-4H-1,2,4-triazol-3-yl)phenyl]-[4-(trifluoromethyl)piperidin-1-yl]methanone]
20 | ≤ 50.1 | Cc1cc(Cl)cc(C2CN(C)CCN2C(=O)c2ccc(NC(=O)C3CC3)cc2N2CCCC2)c1 (racemic) [Example 110, N-[4-[2-(3-chloro-5-methylphenyl)-4-methylpiperazine-1-carbonyl]-3-pyrrolidin-1-ylphenyl]cyclopropanecarboxamide]
21 | ≤ 50.1 | Cc1nnc(-c2ccc(C(=O)N3CCC(C(F)(F)F)CC3)c(-c3ccn(C4CCC4)n3)c2)[nH]1 [Example 47, [2-(1-cyclobutylpyrazol-3-yl)-4-(5-methyl-4H-1,2,4-triazol-3-yl)phenyl]-[4-(trifluoromethyl)piperidin-1-yl]methanone]
22 | 1260 to 6310 | Cc1ncc(-c2cc(NC(=O)C3CC3)ccc2C(=O)N2CCN(C)CC2c2ccccc2)s1 (racemic) [Example 32, N-[4-(4-methyl-2-phenylpiperazine-1-carbonyl)-3-(2-methyl-1,3-thiazol-5-yl)phenyl]cyclopropanecarboxamide]
23 | 316 to 1000 | CN1CCN(C(=O)c2ccc(NC(=O)C3CC3)cc2N2CCCC2)C(c2ccccc2C(F)(F)F)C1 (racemic) [Example 106, N-[4-[4-methyl-2-[2-(trifluoromethyl)phenyl]piperazine-1-carbonyl]-3-pyrrolidin-1-ylphenyl]cyclopropanecarboxamide]
24 | 316 to 1000 | Cc1nnc(-c2ccc(C(=O)N3CCC4(CC3)CC4)c(-c3cnn(C(C)C)c3)c2)[nH]1 [Example 49, 6-azaspiro[2.5]octan-6-yl-[4-(5-methyl-4H-1,2,4-triazol-3-yl)-2-(1-propan-2-ylpyrazol-4-yl)phenyl]methanone]
25 | 63.1 to 251 | Cc1nnc(-c2ccc(C(=O)N3CCC(F)(F)CC3)c(-c3ccn(C)n3)c2)[nH]1 [Example 46, (4,4-difluoropiperidin-1-yl)-[2-(1-methylpyrazol-3-yl)-4-(5-methyl-4H-1,2,4-triazol-3-yl)phenyl]methanone]
26 | 1260 to 6310 | O=C(Nc1ccc(C(=O)N2CCCC2c2ccccc2)c(N2CCCC2)c1)C1CC1 (stereo not drawn) [Example 1, N-[4-(2-phenylpyrrolidine-1-carbonyl)-3-pyrrolidin-1-ylphenyl]cyclopropanecarboxamide]
27 | > 6310 | CN1CCN(C(=O)c2ccc(NC(=O)C3CC3)cc2-c2ccc(C(F)(F)F)s2)C(c2ccccc2)C1 (racemic) [Example 33, N-[4-(4-methyl-2-phenylpiperazine-1-carbonyl)-3-[5-(trifluoromethyl)thiophen-2-yl]phenyl]cyclopropanecarboxamide]
28 | 316 to 1000 | CN1CCN(C(=O)c2ccc(NC(=O)C3CC3)cc2C2CCCC2)C(c2ccccc2)C1 (stereo not drawn) [Example 91, N-[3-cyclopentyl-4-(4-methyl-2-phenylpiperazine-1-carbonyl)phenyl]cyclopropanecarboxamide]
29 | > 6310 | Cc1cc(C(=O)N2CCN(C)CC2c2ccccc2)c(N2CCCC2)cc1NC(=O)C1CC1 (stereo not drawn) [Example 92, N-[2-methyl-4-(4-methyl-2-phenylpiperazine-1-carbonyl)-5-pyrrolidin-1-ylphenyl]cyclopropanecarboxamide]
30 | ≤ 50.1 | Cc1nnc(-c2ccc(C(=O)N3CCC(F)(F)CC3)c(-c3ccn(C(C)C4CC4)n3)c2)[nH]1 (single isomer, unassigned) [Example 57a, [2-[1-(1R or 1S-cyclopropylethyl)pyrazol-3-yl]-4-(5-methyl-4H-1,2,4-triazol-3-yl)phenyl]-(4,4-difluoro-1-piperidyl)methanone]
